Consider 31 compounds from article PMC12064818, “A general assay platform to study protein pharmacology using ligand-dependent structural dynamics” (Nature Communications, 2025).

T1 sequence (P08659 whole entry, looked up): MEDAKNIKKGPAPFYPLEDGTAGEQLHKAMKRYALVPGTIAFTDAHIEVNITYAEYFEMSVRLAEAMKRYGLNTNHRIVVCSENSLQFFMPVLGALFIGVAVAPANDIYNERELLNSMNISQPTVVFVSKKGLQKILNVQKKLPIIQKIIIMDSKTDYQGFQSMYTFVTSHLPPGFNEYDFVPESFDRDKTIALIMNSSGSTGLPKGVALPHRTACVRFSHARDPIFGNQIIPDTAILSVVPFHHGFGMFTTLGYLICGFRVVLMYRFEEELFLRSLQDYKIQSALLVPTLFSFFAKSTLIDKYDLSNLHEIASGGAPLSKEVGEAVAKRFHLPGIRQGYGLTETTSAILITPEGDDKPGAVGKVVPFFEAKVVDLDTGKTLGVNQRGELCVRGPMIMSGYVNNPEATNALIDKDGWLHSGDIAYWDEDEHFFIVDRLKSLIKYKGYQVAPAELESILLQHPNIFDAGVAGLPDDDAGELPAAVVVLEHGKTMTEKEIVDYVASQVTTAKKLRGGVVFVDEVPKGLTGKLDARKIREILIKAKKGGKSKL

This experiment addresses T1, FLuc-C-HiBiT (Photinus pyralis, UniProt P08659).
T1 construct: firefly luciferase with C-terminal HiBiT tag, E. coli expressed
In words: biochemical. The settings on record: enzyme activity, 10 uM ATP; read-out: IC50 or SDR50 (mM) / FLuc E.
As to `O=C(CSc1nccn1Cc1ccco1)Nc1ccc(OC(F)(F)F)cc1` [NCGC00136029-01], the IC50 is 0.0124 mM.

As for `Cc1ccccc1-c1noc(-c2ccc(NC(C)c3cnn(C)c3)nc2)n1` (stereo not shown) [NCGC00428942-01], the IC50 was 0.000989 mM.

As to `O=C(NCc1ccc2c(c1)OCO2)C1CCN(c2cc(C(F)(F)F)ncn2)CC1` [NCGC00455586-01], the IC50 turned out to be 0.0111 mM. `COCCN1CCNc2cc(-c3cccc(OC)c3)ncc2C1` [NCGC00411013-01]: the IC50 came out at 0.0202 mM.

With `O=C(NC1CCN(c2cc(-c3ccc(F)cc3)n[nH]2)C1)c1cc2ccccc2[nH]1` (stereo not shown) [NCGC00437958-01], the IC50 came out at 0.00624 mM. For `O=C(Nc1ccc2c(c1)OCCO2)N1CCCC(c2nc(C3CCOCC3)no2)C1` (stereo not shown) [NCGC00475594-01], the IC50 was 0.0111 mM. Regarding `Fc1ccc(Nc2nc(-c3ccccc3F)no2)cc1` [NCGC00422310-01], the IC50 was determined as 0.00989 mM. As to `COc1ccc(-c2cnc3[nH]cc(CC(=O)N4CCN(c5ccccn5)CC4)c3c2)cc1` [NCGC00412443-01], the IC50 turned out to be 0.018 mM.

`CCn1cc(-c2ccc(Cl)cc2)cc1C(=O)O` [NCGC00432653-01]: the IC50 was greater than 0.03 mM. For the compound `Cc1ccc2nc(-c3ccc(NC(=O)COc4ccccc4)cc3)sc2c1` [NCGC00098210-01], the IC50 is 0.00624 mM. In the case of `COc1ccc(-c2cc(N3CCCC(NC(=O)c4ccsc4)C3)[nH]n2)cc1` (stereo not shown) [NCGC00437662-01], the IC50 stood at 0.00624 mM. As to `O=C(NCC1CCCN(C(=O)N2CCCC2)C1)c1ccc(-c2ccccc2)cc1` (stereo not shown) [NCGC00444515-01], the IC50 was 0.0124 mM. With `Cc1ccc(-n2ncc3c(N4CCCCCC4)ncnc32)cc1Cl` [NCGC00139187-01], the IC50 is 0.0007 mM. For the compound `Cc1ccc(-n2ncc3c(N4CCC(C(N)=O)CC4)ncnc32)cc1` [NCGC00139056-01], the IC50 stood at 0.0124 mM. With `CN1CCNc2cc(-c3ccc([S+](C)(=O)[O-])cc3)ncc2C1` [NCGC00411079-01] the figure was greater than 0.03 mM; with `Clc1ccccc1Cc1cn2cc(-c3ccccc3)nc2s1` [NCGC00102100-01], 0.000442 mM. For `O=c1[nH]nc2n1CCCCC2` [NCGC00019120-02], the IC50 is greater than 0.03 mM.

In the case of `Cc1c(CN2CCOc3c(O)cc(-c4nc5ccccc5s4)cc3C2)cnn1C` [NCGC00240749-01], the IC50 is greater than 0.03 mM. With `CC(=O)Nc1cccc(C(=O)NCCn2ccn3nc(-c4ccc(C)cc4C)cc3c2=O)c1` [NCGC00456962-01] the figure was 0.00989 mM; with `CCOC(=O)N1CCc2c(sc(NCc3ccc(OCC)cc3)c2C(=O)Nc2ccc(OC)cc2OC)C1` [NCGC00140805-01], 0.00394 mM.

With `Nc1nccc(-c2c(-c3ccc(F)cc3)ncn2C2CCNCC2)n1` [NCGC00165900-01], the IC50 is greater than 0.03 mM. `Cc1ccc(N2C(=O)c3[nH]nc(C)c3C2c2ccc(Cl)cc2)cc1` (stereo not shown) [NCGC00108483-01]: the IC50 was found to be 0.0124 mM. With `COc1ccc(-c2cc(N3CCCC(NC(=O)c4cc(OC)cc(OC)c4)C3)[nH]n2)cc1` (stereo not shown) [NCGC00437618-01] the figure was 0.00989 mM; with `CC(=O)NC1(C)CCN(Cc2ccc(-c3ccc4c(ccn4C)c3)cc2)C1` (stereo not shown) [NCGC00410408-01], 0.00718 mM; with `CN(C)C(=O)c1ccc(-c2cccc(-c3ccn(CC4CC4)n3)c2)o1` [NCGC00426335-01], 0.00785 mM. With `COc1cccc(-c2ncc3c(n2)OCCN(Cc2ccc(F)cc2F)C3=O)c1` [NCGC00413648-01] the figure was 0.0161 mM; with `Cc1ccc2nc(-c3ccc(/N=N/c4cc(S(=O)(=O)O)c5ccccc5c4O)cc3)sc2c1S(=O)(=O)O` [NCGC00161973-01], 0.0124 mM; with `COCC1CCN(c2ccc(-c3nc(-c4ccccc4C)no3)cn2)C1` (stereo not shown) [NCGC00427117-01], 0.0176 mM. With `OC1CCN(c2ncnc3c2cnn3-c2ccccc2)CC1` [NCGC00626234-01] the figure was 0.0157 mM. Regarding `CN(CCc1cn[nH]c1)c1ccc(-c2nc(-c3ccccc3F)no2)cn1` [NCGC00429241-01], the IC50 came out at 0.00313 mM. With `Cc1cc(-c2cc3c(cn2)CN(Cc2ccccc2O)CCN3)ccn1` [NCGC00411040-01] the figure was 0.018 mM.
